# Source: patent publication US20050100540A1, “Platelet-activating factor acetylhydrolase” (priority 1993, published 2005)
# Key:
# [1] = target: recombinant PAF-AH encoded by clone sAH 406-3 (Homo sapiens, UniProt Q13093); assay type: biochemical
# recombinant PAF-AH = target: T1, recombinant PAF-AH (Homo sapiens, UniProt Q13093); test: Inhibition of PAF hydrolysis in standard PAF hydrolysis assay; assay type: biochemical; conditions: 0 to 125 μM; highest concentration 5-fold greater than PAF
# T1 construct: 441 amino acids; At the amino terminus, a relatively hydrophobic segment of 41 residues precedes the N-terminal amino acid (the isoleucine at position 42); made in house; host or cells: E. coli (constructs trp AH / pUC trp AH)
# T1 sequence (Q13093 42-441): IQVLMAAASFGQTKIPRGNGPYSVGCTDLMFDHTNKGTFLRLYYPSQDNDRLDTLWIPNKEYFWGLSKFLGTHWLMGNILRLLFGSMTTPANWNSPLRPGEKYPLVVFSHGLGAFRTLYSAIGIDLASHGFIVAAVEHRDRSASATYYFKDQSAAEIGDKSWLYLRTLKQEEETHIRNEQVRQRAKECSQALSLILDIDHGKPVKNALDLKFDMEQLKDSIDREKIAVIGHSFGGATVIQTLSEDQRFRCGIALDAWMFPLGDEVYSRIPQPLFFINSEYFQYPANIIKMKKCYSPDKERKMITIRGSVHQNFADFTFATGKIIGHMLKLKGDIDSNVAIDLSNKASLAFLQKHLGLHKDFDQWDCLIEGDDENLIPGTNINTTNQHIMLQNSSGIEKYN
# Procedure: The most remarkable property of the PAF acetylhydrolase is its marked specificity for substrates with a short residue at the sn-2 position of the substrate. This strict specificity distinguishes PAF acetylhydrolase from other forms of PLA2. Thus, to determine if recombinant PAF-AH degrades phospholipids with long-chain fatty acids at the sn-2 position, hydrolysis of 1-palmitoyl-2-arachidonoyl-sn-glycero-3-phosphocholine (arachidonoylPC) was assayed since this is the preferred substrate for a well-characterized form of PLA2. […] In additional experiments, arachidonoylPC was included in a standard PAF hydrolysis assay at concentrations ranging from 0 to 125 μM to determine whether it inhibited the hydrolysis of PAF by recombinant PAF-AH. There was no inhibition of PAF hydrolysis even at the highest concentration of […], which was 5-fold greater than the concentration of PAF. […] Native plasma PAF-AH has several other properties that distinguish it from other phospholipases including calcium-independence and resistance to compounds that modify sulfhydryl groups or disrupt disulfides.
molecule,measurement,setting,value
"O=C(O)CN(CCN(CC(=O)O)CC(=O)O)CC(=O)O [EDTA, reference compound]",Effect on PAF-AH activity of media from cells transfected with sAH 406-3,[1],unaffected
"CCCCC/C=C\C/C=C\C/C=C\C/C=C\CCCC(=O)O[C@H](COC(=O)CCCCCCCCCCCCCCC)COP(=O)([O-])OCC[N+](C)(C)C [arachidonoylPC, 1-palmitoyl-2-arachidonoyl-sn-glycero-3-phosphocholine]",Inhibition of hydrolysis of PAF by recombinant PAF-AH,recombinant PAF-AH,no inhibition
"sAH 406-3: Full length human plasma PAF-AH cDNA clone, product transiently expressed in COS 7 cells (protein) MVPPKLHVLFCLCGCLAVVYPFDWQYINPVAHMKSSAWVNKIQVLMAAASFGQTKIPRGNGPYSVGCTDLMFDHTNKGTFLRLYYPSQDNDRLDTLWIPNKEYFWGLSKFLGTHWLMGNILRLLFGSMTTPANWNSPLRPGEKYPLVVFSHGLGAFRTLYSAIGIDLASHGFIVAAVEHRDRSASATYYFKDQSAAEIGDKSWLYLRTLKQEEETHIRNEQVRQRAKECSQALSLILDIDHGKPVKNALDLKFDMEQLKDSIDREKIAVIGHSFGGATVIQTLSEDQRFRCGIALDAWMFPLGDEVYSRIPQPLFFINSEYFQYPANIIKMKKCYSPDKERKMITIRGSVHQNFADFTFATGKIIGHMLKLKGDIDSNVAIDLSNKASLAFLQKHLGLHKDFDQWDCLIEGDDENLIPGTNINTTNQHIMLQNSSGIEKYN",PAF-AH activity of transfected COS cell media relative to background,[1],4 fold
